Assay results: ChEMBL document CHEMBL1201862, “PubChem BioAssay data set” (2004)
Active and inactive are the calls of the source.

Assays:
[1] = activation of miR-122 Renilla sensor silencing – cell-based, Huh7 psiCHECK-miR122, Renilla luciferase, cherry-picked, dose response (AID 651956); assay type: functional;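 note: huh7 hepatoma cells stably carrying a psiCHECK-2 miR-122 sensor plasmid; renilla luciferase signal reporting endogenous miR-122 activity after 48 h compound exposure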
[2] = system: P388; experiment: cells; assay type: functional; details: Mus musculus
[3] = system: P388/ADR; experiment: cells; assay type: functional; details: Mus musculus
[4] = system: SN12K1; experiment: cells; assay type: functional; details: Homo sapiens
[5] = biological target: Melanocortin receptor 4 (Homo sapiens, UniProt P32245); assay type: functional, cell-based;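 note: Cell-based assay with luminescence read-out, confirmatory dose-response testing for agonist activity of biased ligands at MC4R; human U2OS cells with tagged receptor and beta-arrestin; potency of agonists that increase receptor coupling to beta-arrestin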
[6] = NIH3T3 cell viability loss – ATP luminescence, mouse fibroblasts, counter-screen, dose response (AID 2010); assay type: functional, cell-based;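 note: cells exposed to compound for about 90 hours before reading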
[7] = system: Vero; experiment: inhibition of WNV-induced cytopathic effect – cell-based, CPE readout (AID 1621); assay type: functional; details: Chlorocebus sabaeus
[8] = Trypanosoma cruzi growth suppression in host cells – NIH3T3 host cells, beta-gal luminescence, confirmation (AID 2044); assay type: functional, cell-based;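 note: intracellular parasites grown in NIH/3T3 mouse fibroblasts as host cells; luminescent beta-galactosidase reporter signal from transgenic T. cruzi replicating inside host cells; inhibitors lower the luminescence signal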
[9] = biological target: T1, Endoribonuclease toxin MazF (Escherichia coli K-12, UniProt P0AE70); experiment: activation of MazEF endoribonuclease cleavage – biochemical, fluorescence, single-stranded RNA substrate, uHTS hits, dose response (AID 588481); assay type: functional
T1 sequence (P0AE70 whole entry): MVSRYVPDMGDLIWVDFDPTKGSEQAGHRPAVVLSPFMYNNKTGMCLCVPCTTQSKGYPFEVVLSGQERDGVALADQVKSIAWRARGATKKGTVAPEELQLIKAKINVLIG

[10] = biological target: T1, Endoribonuclease toxin MazF; experiment: substrate-only fluorescence increase artefacts – biochemical, single-stranded RNase substrate, counter-screen for MazEF activator project, dose response (AID 588502); assay type: functional
[11] = system: HEK293; experiment: EBV LMP1 TES2 canonical NF-kB signalling blockers – cell-based, HEK293, luciferase, cherry-pick, dose response (AID 588343); assay type: functional; details: Homo sapiens
[12] = alpha-synuclein stem-loop luciferase translation blockers – H4 neuroglioma cells, luminescence, confirmation (AID 1988); assay type: functional, cell-based
[13] = luciferase reporter signal suppression in cells – H4 neuroglioma cells, luminescence, dose response (AID 1990); assay type: functional, cell-based
[14] = Luminescence Cell-Based Dose Response HTS to Identify Inhibitors of 5'UTR Stem-Loop Driven Prion Protein mRNA Translation in H4 Neuroglioblastoma Cells. [Related pubchem assays: 1827 (Project Summary), 1813 (Primary HTS)]; assay type: functional
[15] = non-specific 3'UTR reporter inhibition in Clone20-Shn3RL – cell-based, Renilla luciferase, cherry-picked, counter-screen for Shn3 inhibitor project, dose response (AID 624133); assay type: functional
[16] = biological target: DNA (cytosine-5)-methyltransferase 1 (Homo sapiens, UniProt P26358); experiment: inhibition of DNA methylation by DNMT1 – biochemical, fluorescent molecular beacon, confirmation (AID 602386); assay type: functional
DNA (cytosine-5)-methyltransferase 1, sequence (P26358 whole entry): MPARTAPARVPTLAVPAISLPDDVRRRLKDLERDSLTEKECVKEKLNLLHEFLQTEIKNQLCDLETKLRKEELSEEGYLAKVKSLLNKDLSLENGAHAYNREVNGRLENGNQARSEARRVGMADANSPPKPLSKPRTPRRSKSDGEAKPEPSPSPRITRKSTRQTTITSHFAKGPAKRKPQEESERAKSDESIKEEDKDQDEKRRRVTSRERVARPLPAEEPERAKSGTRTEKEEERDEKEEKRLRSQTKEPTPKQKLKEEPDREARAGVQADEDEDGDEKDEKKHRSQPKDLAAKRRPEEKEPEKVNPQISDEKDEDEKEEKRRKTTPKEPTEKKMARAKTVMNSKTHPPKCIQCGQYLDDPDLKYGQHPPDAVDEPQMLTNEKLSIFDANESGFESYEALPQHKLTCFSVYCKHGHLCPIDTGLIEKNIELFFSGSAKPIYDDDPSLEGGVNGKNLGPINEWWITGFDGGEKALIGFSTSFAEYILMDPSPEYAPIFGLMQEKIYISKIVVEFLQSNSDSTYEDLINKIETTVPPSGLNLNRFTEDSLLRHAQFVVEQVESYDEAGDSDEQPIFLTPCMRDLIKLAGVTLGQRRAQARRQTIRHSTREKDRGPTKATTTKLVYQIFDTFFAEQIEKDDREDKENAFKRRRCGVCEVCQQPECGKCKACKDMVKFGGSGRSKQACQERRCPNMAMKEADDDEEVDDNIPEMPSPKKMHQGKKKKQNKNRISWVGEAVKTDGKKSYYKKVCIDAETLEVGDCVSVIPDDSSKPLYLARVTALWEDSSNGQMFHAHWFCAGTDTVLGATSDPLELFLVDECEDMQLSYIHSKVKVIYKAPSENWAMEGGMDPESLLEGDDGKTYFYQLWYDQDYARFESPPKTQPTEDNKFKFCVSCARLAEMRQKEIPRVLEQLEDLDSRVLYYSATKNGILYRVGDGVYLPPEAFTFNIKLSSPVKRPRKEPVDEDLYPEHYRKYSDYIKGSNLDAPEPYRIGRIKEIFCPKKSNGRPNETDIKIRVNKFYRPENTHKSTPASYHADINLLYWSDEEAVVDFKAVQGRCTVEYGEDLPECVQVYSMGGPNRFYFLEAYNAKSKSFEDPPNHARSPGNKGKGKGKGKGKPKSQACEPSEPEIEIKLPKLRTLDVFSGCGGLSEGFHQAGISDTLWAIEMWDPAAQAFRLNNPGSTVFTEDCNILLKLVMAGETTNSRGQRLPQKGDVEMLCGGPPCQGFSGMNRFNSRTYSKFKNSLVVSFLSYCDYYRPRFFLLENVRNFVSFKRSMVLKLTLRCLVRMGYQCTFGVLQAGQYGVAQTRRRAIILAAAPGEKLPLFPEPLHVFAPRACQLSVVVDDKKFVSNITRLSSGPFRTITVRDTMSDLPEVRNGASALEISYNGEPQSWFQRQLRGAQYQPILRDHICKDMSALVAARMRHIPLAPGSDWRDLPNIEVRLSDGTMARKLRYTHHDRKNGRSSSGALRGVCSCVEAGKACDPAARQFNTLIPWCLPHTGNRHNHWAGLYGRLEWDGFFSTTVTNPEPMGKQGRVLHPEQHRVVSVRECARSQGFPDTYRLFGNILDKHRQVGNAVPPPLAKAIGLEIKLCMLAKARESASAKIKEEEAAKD

[17] = biological target: Intestinal-type alkaline phosphatase (Homo sapiens, UniProt P09923); experiment: inhibition of human intestinal alkaline phosphatase – biochemical, dose response (AID 488876); assay type: functional
Intestinal-type alkaline phosphatase (Homo sapiens, UniProt P09923), sequence (P09923 whole entry): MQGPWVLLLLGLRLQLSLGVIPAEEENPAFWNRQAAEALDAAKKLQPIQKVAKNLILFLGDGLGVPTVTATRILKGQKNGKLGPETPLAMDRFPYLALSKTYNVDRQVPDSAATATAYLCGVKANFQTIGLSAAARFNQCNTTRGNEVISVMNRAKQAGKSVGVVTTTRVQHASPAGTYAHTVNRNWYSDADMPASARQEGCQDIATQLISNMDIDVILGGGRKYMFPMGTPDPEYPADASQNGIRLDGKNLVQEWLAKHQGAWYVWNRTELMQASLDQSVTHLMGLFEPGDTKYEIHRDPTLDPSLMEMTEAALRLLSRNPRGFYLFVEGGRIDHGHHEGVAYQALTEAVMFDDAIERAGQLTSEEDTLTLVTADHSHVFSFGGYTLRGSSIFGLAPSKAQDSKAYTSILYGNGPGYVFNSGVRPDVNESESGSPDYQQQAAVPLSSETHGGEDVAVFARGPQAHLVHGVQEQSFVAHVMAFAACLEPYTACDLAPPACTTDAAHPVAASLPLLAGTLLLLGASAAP

[18] = biological target: T2, Alkaline phosphatase, tissue-nonspecific isozyme (Homo sapiens, UniProt P05186); experiment: TNAP enzyme inhibition by screening hits, dose response, selectivity assay for mouse IAP inhibitor project, biochemical, human TNAP, uHTS hits (AID 488906); assay type: functional
T2 sequence (P05186 whole entry): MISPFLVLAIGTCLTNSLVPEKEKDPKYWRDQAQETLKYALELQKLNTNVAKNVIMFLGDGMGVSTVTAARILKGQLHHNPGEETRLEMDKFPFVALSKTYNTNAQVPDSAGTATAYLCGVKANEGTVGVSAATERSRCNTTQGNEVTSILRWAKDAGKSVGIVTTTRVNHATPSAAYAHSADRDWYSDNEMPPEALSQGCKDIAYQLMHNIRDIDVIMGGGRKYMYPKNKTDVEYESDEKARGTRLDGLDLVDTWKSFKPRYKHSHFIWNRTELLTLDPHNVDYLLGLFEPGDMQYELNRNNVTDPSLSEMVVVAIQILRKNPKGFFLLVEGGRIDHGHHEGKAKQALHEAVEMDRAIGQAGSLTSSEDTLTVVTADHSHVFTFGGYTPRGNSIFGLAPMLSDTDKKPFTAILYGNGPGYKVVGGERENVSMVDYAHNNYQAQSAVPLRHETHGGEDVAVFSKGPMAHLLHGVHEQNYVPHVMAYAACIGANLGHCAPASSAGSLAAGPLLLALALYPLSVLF

[19] = biological target: T3, Caspase-6 (Homo sapiens, UniProt P55212); experiment: inhibition of CASP6 peptide cleavage – biochemical, VEID-R110 fluorescence, cherry-pick, dose response (AID 720632)
T3 sequence (P55212 whole entry): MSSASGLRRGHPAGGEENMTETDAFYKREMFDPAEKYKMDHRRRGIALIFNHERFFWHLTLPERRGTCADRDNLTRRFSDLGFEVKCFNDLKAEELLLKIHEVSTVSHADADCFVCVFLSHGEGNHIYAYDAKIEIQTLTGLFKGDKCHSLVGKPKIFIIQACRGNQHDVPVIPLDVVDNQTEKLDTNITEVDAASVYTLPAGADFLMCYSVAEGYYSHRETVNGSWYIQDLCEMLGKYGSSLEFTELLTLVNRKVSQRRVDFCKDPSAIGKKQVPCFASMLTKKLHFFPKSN

[20] = biological target: Intestinal-type alkaline phosphatase (Mus musculus, UniProt P24822); experiment: PubChem AID 488785; assay type: functional
Intestinal-type alkaline phosphatase (Mus musculus, UniProt P24822), sequence (P24822 whole entry): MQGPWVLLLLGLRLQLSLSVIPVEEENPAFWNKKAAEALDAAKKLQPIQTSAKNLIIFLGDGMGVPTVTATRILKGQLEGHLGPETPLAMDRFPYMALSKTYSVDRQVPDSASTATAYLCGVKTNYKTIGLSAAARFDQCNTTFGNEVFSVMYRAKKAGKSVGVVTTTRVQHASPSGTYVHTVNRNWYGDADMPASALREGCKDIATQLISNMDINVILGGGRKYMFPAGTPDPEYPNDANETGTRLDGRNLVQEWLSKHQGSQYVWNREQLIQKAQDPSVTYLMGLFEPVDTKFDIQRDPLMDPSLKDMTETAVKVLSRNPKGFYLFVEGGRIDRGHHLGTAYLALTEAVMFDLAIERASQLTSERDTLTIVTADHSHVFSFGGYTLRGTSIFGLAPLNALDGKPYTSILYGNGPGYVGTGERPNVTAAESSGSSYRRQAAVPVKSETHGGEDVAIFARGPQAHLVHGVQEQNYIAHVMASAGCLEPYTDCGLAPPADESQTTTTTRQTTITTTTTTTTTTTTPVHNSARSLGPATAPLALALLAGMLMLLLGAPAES

[21] = biological target: Mitochondrial peptide methionine sulfoxide reductase (Bos taurus, UniProt P54149); assay type: functional;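 note: absorbance read-out, biochemical high-throughput dose-response screen for MsrA inhibitors, confirmatory; recombinant bovine MsrA coupled to E. coli TrxB with NADPH and selenocystamine; potency is for inhibitors of MsrA activity on DMSO substrate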
Mitochondrial peptide methionine sulfoxide reductase, sequence (P54149 whole entry): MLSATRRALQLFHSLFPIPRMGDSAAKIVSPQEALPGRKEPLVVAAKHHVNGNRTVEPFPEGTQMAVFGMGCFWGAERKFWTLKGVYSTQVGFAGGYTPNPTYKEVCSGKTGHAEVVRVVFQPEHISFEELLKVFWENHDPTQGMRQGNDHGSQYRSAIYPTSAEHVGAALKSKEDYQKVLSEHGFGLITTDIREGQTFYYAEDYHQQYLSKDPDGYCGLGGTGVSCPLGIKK

[22] = biological target: Ras and Rab interactor 1/Tyrosine-protein kinase ABL1 (Homo sapiens, UniProt P00519+Q13671); assay type: functional;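 note: biochemical TR-FRET dose-response test measuring inhibition of binding between Rin1 and Abl proteins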
Ras and Rab interactor 1/Tyrosine-protein kinase ABL1, sequence (P00519 whole entry): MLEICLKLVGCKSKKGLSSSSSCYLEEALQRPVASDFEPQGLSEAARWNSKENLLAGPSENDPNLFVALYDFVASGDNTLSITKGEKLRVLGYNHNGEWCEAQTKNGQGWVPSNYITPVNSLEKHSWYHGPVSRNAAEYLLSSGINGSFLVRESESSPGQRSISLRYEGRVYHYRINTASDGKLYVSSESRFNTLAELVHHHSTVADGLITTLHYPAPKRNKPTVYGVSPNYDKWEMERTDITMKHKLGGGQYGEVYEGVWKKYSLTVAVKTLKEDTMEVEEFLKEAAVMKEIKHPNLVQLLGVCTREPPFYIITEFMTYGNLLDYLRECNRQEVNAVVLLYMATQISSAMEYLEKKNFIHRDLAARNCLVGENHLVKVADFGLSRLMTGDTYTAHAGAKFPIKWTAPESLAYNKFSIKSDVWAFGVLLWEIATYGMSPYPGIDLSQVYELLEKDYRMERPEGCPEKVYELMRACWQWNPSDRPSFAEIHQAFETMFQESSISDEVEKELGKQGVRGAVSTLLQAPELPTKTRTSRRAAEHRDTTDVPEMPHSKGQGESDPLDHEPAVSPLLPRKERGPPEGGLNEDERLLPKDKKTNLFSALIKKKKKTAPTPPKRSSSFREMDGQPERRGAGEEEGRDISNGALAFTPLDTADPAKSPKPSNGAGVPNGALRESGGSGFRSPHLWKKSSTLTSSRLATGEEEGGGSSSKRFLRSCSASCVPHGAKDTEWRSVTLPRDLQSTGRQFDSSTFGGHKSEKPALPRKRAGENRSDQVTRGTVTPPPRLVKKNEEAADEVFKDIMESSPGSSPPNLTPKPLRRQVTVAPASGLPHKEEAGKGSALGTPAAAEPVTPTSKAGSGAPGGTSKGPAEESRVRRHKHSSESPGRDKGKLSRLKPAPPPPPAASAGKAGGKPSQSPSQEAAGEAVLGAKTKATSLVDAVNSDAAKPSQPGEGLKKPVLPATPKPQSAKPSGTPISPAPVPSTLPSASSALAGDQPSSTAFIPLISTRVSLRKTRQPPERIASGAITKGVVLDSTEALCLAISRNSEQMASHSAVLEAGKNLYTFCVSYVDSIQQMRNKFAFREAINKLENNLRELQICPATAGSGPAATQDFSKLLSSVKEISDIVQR
Ras and Rab interactor 1/Tyrosine-protein kinase ABL1, sequence (Q13671 whole entry): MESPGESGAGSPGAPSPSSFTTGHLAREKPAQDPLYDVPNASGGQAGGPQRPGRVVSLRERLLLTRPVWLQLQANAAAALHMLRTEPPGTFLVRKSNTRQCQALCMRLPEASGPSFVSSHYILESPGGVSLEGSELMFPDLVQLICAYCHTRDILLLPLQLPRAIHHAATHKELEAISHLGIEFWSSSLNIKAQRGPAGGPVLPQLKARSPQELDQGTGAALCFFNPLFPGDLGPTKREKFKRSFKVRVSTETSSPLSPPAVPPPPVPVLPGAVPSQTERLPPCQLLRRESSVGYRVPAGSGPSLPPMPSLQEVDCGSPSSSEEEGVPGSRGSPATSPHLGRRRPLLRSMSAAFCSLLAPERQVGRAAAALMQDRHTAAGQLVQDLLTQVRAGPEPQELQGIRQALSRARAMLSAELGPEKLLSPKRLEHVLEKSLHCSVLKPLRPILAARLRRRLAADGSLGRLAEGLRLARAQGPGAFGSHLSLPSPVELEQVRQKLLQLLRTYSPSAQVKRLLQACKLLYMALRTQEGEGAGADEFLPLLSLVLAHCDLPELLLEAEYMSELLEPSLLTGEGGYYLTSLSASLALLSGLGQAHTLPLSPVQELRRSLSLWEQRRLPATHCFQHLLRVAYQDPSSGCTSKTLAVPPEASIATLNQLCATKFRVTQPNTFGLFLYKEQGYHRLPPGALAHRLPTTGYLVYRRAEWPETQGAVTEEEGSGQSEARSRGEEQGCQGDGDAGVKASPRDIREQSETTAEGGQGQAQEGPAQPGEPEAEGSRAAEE

[23] = biological target: T4, Protein skinhead-1 (Caenorhabditis elegans, UniProt P34707); assay type: functional
T4 sequence (P34707 whole entry): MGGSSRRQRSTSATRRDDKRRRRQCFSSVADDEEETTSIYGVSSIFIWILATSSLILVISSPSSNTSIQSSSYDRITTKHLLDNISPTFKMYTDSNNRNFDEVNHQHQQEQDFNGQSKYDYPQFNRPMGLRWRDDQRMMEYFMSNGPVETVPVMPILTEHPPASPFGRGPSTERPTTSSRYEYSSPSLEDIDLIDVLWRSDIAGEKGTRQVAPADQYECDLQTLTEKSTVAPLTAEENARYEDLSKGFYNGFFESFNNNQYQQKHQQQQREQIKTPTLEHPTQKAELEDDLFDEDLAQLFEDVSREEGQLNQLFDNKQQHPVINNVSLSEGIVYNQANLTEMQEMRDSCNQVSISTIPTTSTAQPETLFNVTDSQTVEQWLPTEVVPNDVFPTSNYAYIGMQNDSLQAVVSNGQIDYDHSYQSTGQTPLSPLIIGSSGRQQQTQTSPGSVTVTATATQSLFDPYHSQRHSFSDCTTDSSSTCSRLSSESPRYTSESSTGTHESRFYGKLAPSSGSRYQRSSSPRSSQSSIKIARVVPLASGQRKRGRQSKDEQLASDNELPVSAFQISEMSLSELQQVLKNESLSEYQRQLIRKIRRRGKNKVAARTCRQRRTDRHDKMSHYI

[24] = biological target: T5, Low molecular weight phosphotyrosine protein phosphatase (Homo sapiens, UniProt P24666); assay type: functional; details: read-out: IC50_Mean
T5 sequence (P24666 whole entry): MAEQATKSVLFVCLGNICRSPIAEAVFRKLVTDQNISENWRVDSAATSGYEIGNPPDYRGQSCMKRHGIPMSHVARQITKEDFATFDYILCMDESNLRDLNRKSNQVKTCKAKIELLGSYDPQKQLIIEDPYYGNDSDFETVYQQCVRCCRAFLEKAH

[25] = biological target: T5, Low molecular weight phosphotyrosine protein phosphatase; assay type: functional; details: read-out: IC50_Mean; remark: listed apart in the source

**Q.** Which AC50 [1] does the source give for `COc1cc(C(=O)Nc2ccc(S(=O)(=O)N3CCCCC3C)cc2)cc(OC)c1OC` (stereo unspecified) here?
**A.** Its AC50 is 19.8 µM (active).

**Q.** For `CC1OC(O[C@@H]2C=C3CC[C@@H]4[C@H](CC[C@]5(C)[C@@H](c6ccc(=O)oc6)CC[C@]45O)[C@@]3(C)CC2)C(O)C(OC2OC(CO)C(O)C(O)C2O)C1O` (stereo partly specified), which GI50 [2] is on record?
**A.** Its GI50 is 45.3 µM (inactive).

**Q.** And the GI50 [3]?
**A.** The GI50 was 51.3 µM (inactive).

**Q.** What about the GI50 [4] of the same molecule?
**A.** The GI50 was 0.025 µM (active).

**Q.** For `CCN1CCN(CCNC(=O)c2ccc(/C=C3\Sc4ccccc4N(Cc4ccccc4F)C3=O)cc2)CC1`, which EC50 [5] is on record?
**A.** Its EC50 is > 89.2 µM (inactive).

**Q.** What about the EC50 [6] of the same molecule?
**A.** The EC50 was > 60 µM (not active).

**Q.** And the IC50 [7]?
**A.** Its IC50 is 22.8 µM (active).

**Q.** What about the EC50 [8] of the same molecule?
**A.** Its EC50 is 2.03 µM (active).

**Q.** For `CC(=O)C(=NNc1cc(C)ccc1O)C(C)=O`, which EC50 [9] is on record?
**A.** Its EC50 is > 99 µM (inactive).

**Q.** What about the EC50 [10] of the same molecule?
**A.** Its EC50 is > 99 µM (inactive).

**Q.** With `O=C(N/N=C/c1cccs1)c1[nH]nc2c1CCCC2` as the molecule, how does the AC50 [11] read?
**A.** Its AC50 is 2.39 µM (active).

**Q.** And the EC50 [12]?
**A.** The EC50 was 8.52 µM (active).

**Q.** What about the EC50 [13] of the same molecule?
**A.** The EC50 was 8.62 µM (inconclusive).

**Q.** What about the EC50 [14] of the same molecule?
**A.** The EC50 was 9.49 µM (active).

**Q.** For `COc1ccc(C(=O)OCC(=O)Nc2ncc([N+](=O)[O-])s2)cc1OC`, which AC50 [15] is on record?
**A.** The AC50 was 20.8 µM (active).

**Q.** And the IC50 [16]?
**A.** Its IC50 is 4.45 µM (active).

**Q.** What about the IC50 [17] of the same molecule?
**A.** The IC50 was 72.6 µM (active).

**Q.** What about the IC50 [18] of the same molecule?
**A.** The IC50 was 23.7 µM (active).

**Q.** And the AC50 [19]?
**A.** The AC50 was 4.75 µM (active).

**Q.** What about the IC50 [20] of the same molecule?
**A.** Its IC50 is 8.79 µM (active).

**Q.** Which IC50 [21] does the source give for `S=C1NC2(CCCC2)Nc2ccccc21` here?
**A.** Its IC50 is 53.6 µM (inactive).

**Q.** Which IC50 [22] does the source give for `CN(Cc1ccccc1)C(=O)c1ccc(NC(=O)Cc2ccc(NC(=O)C3CCN(C(=O)C4CCCC4)CC3)cc2)cc1` here?
**A.** Its IC50 is 20.7 µM (inactive).

**Q.** Which results are given for `CCOc1ccc2nc(N(CCN(C)C)C(=O)c3cc4ccccc4cc3OC)sc2c1`?
**A.** IC50 [22]: 52 µM (inactive); IC50 [23]: > 100 µM (inactive)

**Q.** With `Clc1cccc(Cl)c1Cn1cnc(NCc2ccco2)c2ncnc1-2` as the molecule, how does the IC50 [24] read?
**A.** The IC50 was 4.06 µM (active).

**Q.** And the IC50 [25]?
**A.** The IC50 was 9.54 µM (active).
